Test results as given in patent US20020137929A1, “1 - (3-heterocyclylphenyl) isothiourea, -isourea, -guanidine and -amidine herbicidal agents” (Intellectual Property Department, BASF Aktiengesellschaft, priority 1998, published 2002).

Columns and labels:
CYPSE (Flatsedge) = experiment: Postemergence weed control under flooded paddy conditions; format: in vivo, Cyperus serotinus; settings: postemergence weeds, rated 3 to 4 weeks after treatment
Summary of the method: (§1)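 Containers holding 3–5 cm weeds and rice at 1.5–2.5 leaves are flooded to 1.5–3 cm above soil. Compound in 50/50 v/v aqueous/acetone is then added directly to the water, about 0.0313–0.500 kg/ha. Plants are kept in the greenhouse and rated 0–9 visually at 3–4 weeks.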

CYPIR (Rice Flatsedge) = experiment: as above; format: in vivo, Cyperus iria; settings: postemergence weeds, rated 3 to 4 weeks after treatment
Summary of the method: as §1

ECHCG (Barnyardgrass) [1] = experiment: Preemergence herbicidal evaluation; format: in vivo, Echinochloa crus-galli; settings: preemergence, rated 4-5 weeks after treatment, 0-9 scale
Summary of the method: (§2)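 Rating at 4–5 wk post-spray on a 0–9 visual scale vs control. Application: aqueous acetone, ~0.0156–0.500 kg/ha, to soil surface after seeding, preemergence.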

ABUTH (Velvetleaf) [2] = experiment: Postemergence herbicidal evaluation; format: in vivo, Abutilon theophrasti; settings: postemergence
Summary of the method: (§3)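 First, seedlings were raised for around two weeks. Next, test material in 50/50 acetone/water containing 0.5% TWEEN 20 was sprayed through a nozzle at 40 psi, equivalent to about 0.0156–0.500 kg/ha. Finally, after 4–5 weeks in the greenhouse, plants were rated 0–9.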

ORYSAT (Rice, Tebonnet) = experiment: Postemergence herbicidal evaluation; format: in vivo, Oryza sativa, (L.) Tebonnet; settings: postemergence
Summary of the method: as §3

[3] = tested on: IPOHE (Morningglory, Ivyleaf); experiment: Preemergence herbicidal evaluation; format: in vivo, Ipomoea hederacea; settings: preemergence, rated 4-5 weeks after treatment, 0-9 scale
Summary of the method: as §2

[4] = tested on: TRZAWR (Wheat, Winter, cv Riband); experiment: Preemergence herbicidal evaluation; format: in vivo, Triticum aestivum; settings: preemergence, rated 4-5 weeks after treatment, 0-9 scale
Summary of the method: as §2

SETVI (Foxtail, Green) = experiment: Postemergence herbicidal evaluation; format: in vivo, Setaria viridis; settings: postemergence
Summary of the method: as §3

ECHCG (Barnyardgrass) [5] = experiment: Postemergence herbicidal evaluation; format: in vivo, Echinochloa crus-galli; settings: postemergence
Summary of the method: as §3

CASOB (Sicklepod) = experiment: Preemergence herbicidal evaluation; format: in vivo, Cassia obtusifolia; settings: preemergence, rated 4-5 weeks after treatment, 0-9 scale
Summary of the method: as §2

[6] = tested on: CHEAL (Lambsquarters, Common); experiment: Postemergence herbicidal evaluation; format: in vivo, Chenopodium album; settings: postemergence
Summary of the method: as §3

[7] = tested on: CHEAL (Lambsquarters, Common); experiment: Preemergence herbicidal evaluation; format: in vivo, Chenopodium album; settings: preemergence, rated 4-5 weeks after treatment, 0-9 scale
Summary of the method: as §2

ZEAMX (Corn, Field) [8] = experiment: Postemergence herbicidal evaluation; format: in vivo, Zea mays; settings: postemergence
Summary of the method: as §3

ZEAMX (Corn, Field) [9] = experiment: Preemergence herbicidal evaluation; format: in vivo, Zea mays; settings: preemergence, rated 4-5 weeks after treatment, 0-9 scale
Summary of the method: as §2

[10] = tested on: GLXMAW (Soybean, Williams); experiment: Preemergence herbicidal evaluation; format: in vivo, Glycine max, (L.) Merr. cv Williams; settings: preemergence, rated 4-5 weeks after treatment, 0-9 scale
Summary of the method: as §2

[11] = tested on: IPOHE (Morningglory, Ivyleaf); experiment: Postemergence herbicidal evaluation; format: in vivo, Ipomoea hederacea; settings: postemergence
Summary of the method: as §3

ABUTH (Velvetleaf) [12] = experiment: Preemergence herbicidal evaluation; format: in vivo, Abutilon theophrasti; settings: preemergence, rated 4-5 weeks after treatment, 0-9 scale
Summary of the method: as §2

CN1C(=O)C(CC(=O)Nc2ccccc2)SC1=Nc1cc(-n2c(=O)cc(C(F)(F)F)n(C)c2=O)c(F)cc1Cl (stereo not shown) [Compound 91, 2-{{2-Chloro-5-[3,6-dihydro-3-methyl-2,6-dioxo-4-(trifluoromethyl)-1(2H)-pyrimidinyl]-4-fluorophenyl}imino}-3-methyl-4-oxo-5-thiazolidineacetanilide]
Herbicidal rating CYPSE (CYPSE (Flatsedge); Rate 0.0313 kg/ha): 0.0 | Herbicidal rating CYPSE (CYPSE (Flatsedge); Rate 0.0625 kg/ha): 0.0 | Herbicidal rating CYPSE (CYPSE (Flatsedge); Rate 0.1250 kg/ha): 0.0 | Herbicidal rating CYPSE (CYPSE (Flatsedge); Rate 0.2500 kg/ha): 0.0 | Herbicidal rating CYPIR (CYPIR (Rice Flatsedge); Rate 0.0313 kg/ha): 0.0 | Herbicidal rating CYPIR (CYPIR (Rice Flatsedge); Rate 0.0625 kg/ha): 0.0 | Herbicidal rating CYPIR (CYPIR (Rice Flatsedge); Rate 0.1250 kg/ha): 0.0 | Herbicidal rating CYPIR (CYPIR (Rice Flatsedge); Rate 0.2500 kg/ha): 0.0 | ECHCG rating (ECHCG (Barnyardgrass) [1]; 0.1250 kg/ha): 0.0 | ECHCG rating (ECHCG (Barnyardgrass) [1]; 0.2500 kg/ha): 0.0 | ABUTH herbicidal rating (ABUTH (Velvetleaf) [2]; rate 0.0158 kg/ha): 7.0 | ABUTH herbicidal rating (ABUTH (Velvetleaf) [2]; rate 0.0315 kg/ha): 9.0 | ABUTH herbicidal rating (ABUTH (Velvetleaf) [2]; rate 0.0630 kg/ha): 9.0 | ORYSAT herbicidal rating (ORYSAT (Rice, Tebonnet); rate 0.0158 kg/ha): 1.0 | ORYSAT herbicidal rating (ORYSAT (Rice, Tebonnet); rate 0.0315 kg/ha): 1.0 | ORYSAT herbicidal rating (ORYSAT (Rice, Tebonnet); rate 0.0630 kg/ha): 2.0 | IPOHE rating ([3]; 0.1250 kg/ha): 0.0 | IPOHE rating ([3]; 0.2500 kg/ha): 0.0 | TRZAWR rating ([4]; 0.1250 kg/ha): 0.0 | TRZAWR rating ([4]; 0.2500 kg/ha): 0.0 | SETVI herbicidal rating (SETVI (Foxtail, Green); rate 0.0158 kg/ha): 0.0 | SETVI herbicidal rating (SETVI (Foxtail, Green); rate 0.0315 kg/ha): 0.0 | SETVI herbicidal rating (SETVI (Foxtail, Green); rate 0.0630 kg/ha): 0.0 | ECHCG herbicidal rating (ECHCG (Barnyardgrass) [5]; rate 0.0158 kg/ha): 0.0 | ECHCG herbicidal rating (ECHCG (Barnyardgrass) [5]; rate 0.0315 kg/ha): 0.0 | ECHCG herbicidal rating (ECHCG (Barnyardgrass) [5]; rate 0.0630 kg/ha): 0.0 | CASOB rating (CASOB (Sicklepod); 0.1250 kg/ha): 0.0 | CASOB rating (CASOB (Sicklepod); 0.2500 kg/ha): 0.0 | CHEAL herbicidal rating ([6]; rate 0.0158 kg/ha): 0.0 | CHEAL herbicidal rating ([6]; rate 0.0315 kg/ha): 3.0 | CHEAL herbicidal rating ([6]; rate 0.0630 kg/ha): 3.0 | CHEAL rating ([7]; 0.1250 kg/ha): 4.0 | CHEAL rating ([7]; 0.2500 kg/ha): 9.0 | ZEAMX herbicidal rating (ZEAMX (Corn, Field) [8]; rate 0.0158 kg/ha): 4.0 | ZEAMX herbicidal rating (ZEAMX (Corn, Field) [8]; rate 0.0315 kg/ha): 4.0 | ZEAMX herbicidal rating (ZEAMX (Corn, Field) [8]; rate 0.0630 kg/ha): 5.0 | ZEAMX rating (ZEAMX (Corn, Field) [9]; 0.1250 kg/ha): 0.0 | ZEAMX rating (ZEAMX (Corn, Field) [9]; 0.2500 kg/ha): 0.0 | GLXMAW rating ([10]; 0.1250 kg/ha): 0.0 | GLXMAW rating ([10]; 0.2500 kg/ha): 0.0 | IPOHE herbicidal rating ([11]; rate 0.0158 kg/ha): 7.0 | IPOHE herbicidal rating ([11]; rate 0.0315 kg/ha): 9.0 | IPOHE herbicidal rating ([11]; rate 0.0630 kg/ha): 9.0 | ABUTH rating (ABUTH (Velvetleaf) [12]; 0.1250 kg/ha): 4.0 | ABUTH rating (ABUTH (Velvetleaf) [12]; 0.2500 kg/ha): 9.0

CN1C(=O)C(CC(=O)OCCF)SC1=Nc1cc(-n2c(=O)cc(C(F)(F)F)n(C)c2=O)c(F)cc1Cl (stereo not shown) [Compound 93, 2-Fluoroethyl 2-{{2-chloro-5-[3,6-dihydro-3-methyl-2,6-dioxo-4-(trifluoromethyl)-1(2H)-pyrimidinyl]-4-fluorophenyl}imino}-3-methyl-4-oxo-5-thiazolidineacetate]
Herbicidal rating CYPSE (CYPSE (Flatsedge); Rate 0.0313 kg/ha): 0.0 | Herbicidal rating CYPSE (CYPSE (Flatsedge); Rate 0.0625 kg/ha): 0.0 | Herbicidal rating CYPSE (CYPSE (Flatsedge); Rate 0.1250 kg/ha): 5.0 | Herbicidal rating CYPSE (CYPSE (Flatsedge); Rate 0.2500 kg/ha): 9.0 | Herbicidal rating CYPIR (CYPIR (Rice Flatsedge); Rate 0.0313 kg/ha): 0.0 | Herbicidal rating CYPIR (CYPIR (Rice Flatsedge); Rate 0.0625 kg/ha): 0.0 | Herbicidal rating CYPIR (CYPIR (Rice Flatsedge); Rate 0.1250 kg/ha): 0.0 | Herbicidal rating CYPIR (CYPIR (Rice Flatsedge); Rate 0.2500 kg/ha): 0.0 | ECHCG rating (ECHCG (Barnyardgrass) [1]; 0.0313 kg/ha): 0.0 | ECHCG rating (ECHCG (Barnyardgrass) [1]; 0.0625 kg/ha): 0.0 | ECHCG rating (ECHCG (Barnyardgrass) [1]; 0.1250 kg/ha): 0.0 | ECHCG rating (ECHCG (Barnyardgrass) [1]; 0.2500 kg/ha): 0.0 | ABUTH herbicidal rating (ABUTH (Velvetleaf) [2]; rate 0.0158 kg/ha): 9.0 | ABUTH herbicidal rating (ABUTH (Velvetleaf) [2]; rate 0.0315 kg/ha): 9.0 | ABUTH herbicidal rating (ABUTH (Velvetleaf) [2]; rate 0.0630 kg/ha): 9.0 | ORYSAT herbicidal rating (ORYSAT (Rice, Tebonnet); rate 0.0158 kg/ha): 1.0 | ORYSAT herbicidal rating (ORYSAT (Rice, Tebonnet); rate 0.0315 kg/ha): 4.0 | ORYSAT herbicidal rating (ORYSAT (Rice, Tebonnet); rate 0.0630 kg/ha): 6.0 | IPOHE rating ([3]; 0.0313 kg/ha): 0.0 | IPOHE rating ([3]; 0.0625 kg/ha): 2.0 | IPOHE rating ([3]; 0.1250 kg/ha): 9.0 | IPOHE rating ([3]; 0.2500 kg/ha): 9.0 | TRZAWR rating ([4]; 0.0313 kg/ha): 0.0 | TRZAWR rating ([4]; 0.0625 kg/ha): 0.0 | TRZAWR rating ([4]; 0.1250 kg/ha): 2.0 | TRZAWR rating ([4]; 0.2500 kg/ha): 7.0 | SETVI herbicidal rating (SETVI (Foxtail, Green); rate 0.0158 kg/ha): 9.0 | SETVI herbicidal rating (SETVI (Foxtail, Green); rate 0.0315 kg/ha): 9.0 | SETVI herbicidal rating (SETVI (Foxtail, Green); rate 0.0630 kg/ha): 9.0 | ECHCG herbicidal rating (ECHCG (Barnyardgrass) [5]; rate 0.0158 kg/ha): 0.0 | ECHCG herbicidal rating (ECHCG (Barnyardgrass) [5]; rate 0.0315 kg/ha): 2.0 | ECHCG herbicidal rating (ECHCG (Barnyardgrass) [5]; rate 0.0630 kg/ha): 7.0 | CASOB rating (CASOB (Sicklepod); 0.0313 kg/ha): 0.0 | CASOB rating (CASOB (Sicklepod); 0.0625 kg/ha): 0.0 | CASOB rating (CASOB (Sicklepod); 0.1250 kg/ha): 0.0 | CASOB rating (CASOB (Sicklepod); 0.2500 kg/ha): 9.0 | CHEAL herbicidal rating ([6]; rate 0.0158 kg/ha): 4.0 | CHEAL herbicidal rating ([6]; rate 0.0315 kg/ha): 4.0 | CHEAL herbicidal rating ([6]; rate 0.0630 kg/ha): 9.0 | CHEAL rating ([7]; 0.0313 kg/ha): 3.0 | CHEAL rating ([7]; 0.0625 kg/ha): 9.0 | CHEAL rating ([7]; 0.1250 kg/ha): 9.0 | CHEAL rating ([7]; 0.2500 kg/ha): 9.0 | ZEAMX herbicidal rating (ZEAMX (Corn, Field) [8]; rate 0.0158 kg/ha): 7.5 | ZEAMX herbicidal rating (ZEAMX (Corn, Field) [8]; rate 0.0315 kg/ha): 7.5 | ZEAMX herbicidal rating (ZEAMX (Corn, Field) [8]; rate 0.0630 kg/ha): 8.0 | ZEAMX rating (ZEAMX (Corn, Field) [9]; 0.0313 kg/ha): 0.0 | ZEAMX rating (ZEAMX (Corn, Field) [9]; 0.0625 kg/ha): 0.0 | ZEAMX rating (ZEAMX (Corn, Field) [9]; 0.1250 kg/ha): 1.0 | ZEAMX rating (ZEAMX (Corn, Field) [9]; 0.2500 kg/ha): 6.0 | GLXMAW rating ([10]; 0.0313 kg/ha): 0.0 | GLXMAW rating ([10]; 0.0625 kg/ha): 0.0 | GLXMAW rating ([10]; 0.1250 kg/ha): 4.0 | GLXMAW rating ([10]; 0.2500 kg/ha): 8.0 | IPOHE herbicidal rating ([11]; rate 0.0158 kg/ha): 9.0 | IPOHE herbicidal rating ([11]; rate 0.0315 kg/ha): 9.0 | IPOHE herbicidal rating ([11]; rate 0.0630 kg/ha): 9.0 | ABUTH rating (ABUTH (Velvetleaf) [12]; 0.0313 kg/ha): 5.0 | ABUTH rating (ABUTH (Velvetleaf) [12]; 0.0625 kg/ha): 9.0 | ABUTH rating (ABUTH (Velvetleaf) [12]; 0.1250 kg/ha): 9.0 | ABUTH rating (ABUTH (Velvetleaf) [12]; 0.2500 kg/ha): 9.0
